The values below come from ChEMBL document CHEMBL1201862, “PubChem BioAssay data set” (2004).

Test systems include ACHN; CCRF-CEM; COLO 205; HCT-116; HL-60; HOP-92; K562; LOX IMVI; MOLT-4; NCI-H23; OVCAR-3; OVCAR-8; RXF 393; SK-OV-3; SNB-75; UO-31; NCI-H226.
Experiment in all cases: growth of human tumour cells (NCI), 48 h

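Growth conditions: 96-well plates. Treatment: test compound, 48 hours, 5 concentrations. Analysis: linear interpolation between bracketing concentrations; unreached endpoints set to highest concentration. GI50 = concentration required for 50% inhibition of growth.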 The source made the active and inactive calls. Cut-off read from the data, not from the text of the source: active = GI50 up to about 1.1 µM and inactive = higher.

With `Cc1nc2c(o1)/C(=N\c1ccccc1)c1ccccc1C2=O`, the GI50 is 7.16 µM (inactive) with ACHN; 10.9 µM (inactive) with CCRF-CEM; 15.8 µM (inactive) in the test on COLO 205; 6.98 µM (inactive) with HCT-116; 3.3 µM (inactive) in the test on HL-60; 12.3 µM (inactive) in the test on HOP-92. Also, the GI50 in the test on K562 was 5.7 µM (inactive); in the test with LOX IMVI, 3.32 µM (inactive); in the test with MOLT-4 it was 18 µM (inactive); with NCI-H23, 1.9 µM (inactive); with OVCAR-3 it was 2.54 µM (inactive); with OVCAR-8, 3.67 µM (inactive). The GI50 is 20.2 µM (inactive) with RXF 393, 14.8 µM (inactive) in the test with SK-OV-3, 10.9 µM (inactive) in the test on SNB-75 and 7.89 µM (inactive) in the test on UO-31.

On to `O=C1C=C[C@@]23CC1C(O)C[C@H]2C=Cc1ccccc13` (some centres undefined), for which the GI50 in the test on ACHN, with CCRF-CEM, in the test on COLO 205, with HCT-116, in the test on HL-60 and in the test with HOP-92 was > 100 µM (inactive) in each case. Further, the GI50 in the test on K562 was 50.2 µM (inactive); in the test with LOX IMVI it was > 100 µM (inactive); in the test with MOLT-4, > 100 µM (inactive); with NCI-H226, > 100 µM (inactive); in the test with OVCAR-3 it was > 100 µM (inactive); with OVCAR-8 it was > 100 µM (inactive). Besides, the GI50 in the test with SK-OV-3 is > 100 µM (inactive); in the test on SNB-75, 91.6 µM (inactive); with UO-31, > 100 µM (inactive).

With `CC1=CCC(O)C=CC(C)C(O)C(C)C=C(C)C(=O)c2c(O)c(C)cc3c2C(=O)C(N)=C(NC(=O)/C=C\C=C/C=CC(C)C(O)CC1=O)C3=O` (centres undefined), the GI50 with ACHN was > 100 µM (inactive); in the test on CCRF-CEM, 67.6 µM (inactive); in the test on COLO 205, 37.1 µM (inactive); in the test with HCT-116 it was 21.6 µM (inactive); in the test on HL-60, 0.292 µM (active); in the test on HOP-92, > 100 µM (inactive). Further, the GI50 in the test on K562 is > 100 µM (inactive); in the test on LOX IMVI it was > 100 µM (inactive); with MOLT-4 it was 63.7 µM (inactive); in the test with NCI-H226 it was > 100 µM (inactive); in the test on NCI-H23, > 100 µM (inactive); with OVCAR-3, 64.4 µM (inactive). For the same compound, the GI50 with OVCAR-8 is > 100 µM (inactive); in the test on SK-OV-3, > 100 µM (inactive); in the test on SNB-75, > 100 µM (inactive); in the test on UO-31, 63 µM (inactive).

Take `O=P(CN1CCOCC1)(c1ccccc1)c1ccccc1`: the GI50 in the test on ACHN, with CCRF-CEM, in the test with COLO 205, with HCT-116, in the test on HL-60 and in the test with HOP-92 was > 100 µM (inactive) throughout. In addition, the GI50 in the test with K562, in the test on LOX IMVI, in the test on MOLT-4, in the test with NCI-H23, in the test on OVCAR-3 and in the test with OVCAR-8 was > 100 µM (inactive) throughout. For the same compound, the GI50 in the test on RXF 393, with SK-OV-3, with SNB-75 and in the test with UO-31 was > 100 µM (inactive) throughout.

Consider `CCN(CC)C(=O)CNC(=O)OC(C)(C)C`, for which the GI50 in the test with ACHN, with CCRF-CEM, in the test with HCT-116, with HL-60, with HOP-92 and in the test with K562 was > 100 µM (inactive) throughout. The GI50 with LOX IMVI, with MOLT-4, in the test on NCI-H226, in the test on NCI-H23, in the test on OVCAR-3 and with OVCAR-8 was > 100 µM (inactive) throughout. Besides, the GI50 in the test with RXF 393, in the test on SK-OV-3, with SNB-75 and in the test with UO-31 was > 100 µM (inactive) throughout.

Regarding `CCc1cc(C(=O)OC)cn1C(=N)c1ccc(Cl)cc1`, the GI50 in the test with ACHN, in the test on CCRF-CEM, in the test with COLO 205, in the test with HCT-116, with HL-60 and in the test on HOP-92 was > 100 µM (inactive) in each case. Moreover, the GI50 in the test with K562, in the test with LOX IMVI, in the test with MOLT-4, in the test on NCI-H226, in the test on NCI-H23 and with OVCAR-3 was > 100 µM (inactive) in each case. In addition, the GI50 with OVCAR-8 is > 100 µM (inactive); with SK-OV-3, > 100 µM (inactive); in the test on SNB-75, 87.5 µM (inactive); in the test with UO-31 it was > 100 µM (inactive).

Regarding `O=[N+]([O-])c1ccc(Sc2c3ccccc3nc3ccccc23)cc1`, the GI50 in the test with ACHN was > 100 µM (inactive); in the test with CCRF-CEM it was > 100 µM (inactive); in the test with COLO 205, > 100 µM (inactive); in the test with HCT-116 it was > 100 µM (inactive); in the test on HL-60, 46.5 µM (inactive); in the test on K562, > 100 µM (inactive). For the same compound, the GI50 in the test with LOX IMVI, in the test on MOLT-4, with NCI-H226, in the test with NCI-H23, in the test on OVCAR-3 and in the test on OVCAR-8 was > 100 µM (inactive) each time. The GI50 in the test with RXF 393, in the test with SNB-75 and with UO-31 was > 100 µM (inactive) each time.

For the compound `Cc1cc(N(CCC#N)CCC#N)ccc1/N=N/c1ccc(Br)cc1`, the GI50 was 9.12 µM (inactive) in the test on ACHN; > 31.6 µM (inactive) with CCRF-CEM; > 100 µM (inactive) in the test on COLO 205; 36.8 µM (inactive) in the test on HCT-116; > 100 µM (inactive) in the test with HL-60; 23.8 µM (inactive) in the test on K562. Besides, the GI50 was > 21.7 µM (inactive) in the test on LOX IMVI; 19.3 µM (inactive) with MOLT-4; 25.1 µM (inactive) with NCI-H226; 17.5 µM (inactive) in the test with NCI-H23; > 44.2 µM (inactive) in the test with OVCAR-3; > 37.6 µM (inactive) with OVCAR-8. Also, the GI50 is 8.13 µM (inactive) with RXF 393, 2.64 µM (inactive) in the test with SK-OV-3 and 27.7 µM (inactive) with UO-31.

For the compound `COC1=C2C[C@H](O)C(C)C[C@@]2(OC)OC1=O` (some centres undefined), the GI50 with CCRF-CEM, with COLO 205, in the test on HCT-116, in the test on HL-60, in the test with HOP-92 and with K562 was > 100 µM (inactive) throughout. The GI50 in the test on LOX IMVI, with MOLT-4, in the test on NCI-H23, with OVCAR-3, with RXF 393 and with SK-OV-3 was > 100 µM (inactive) in each case. Further, the GI50 in the test on SNB-75 and in the test with UO-31 was > 100 µM (inactive) each time.
